Source: patent US5376676A (Allergan, Inc., priority 1991, dated 1994)

Assays:
[1] = molecular target: bee venom phospholipase A2 (Apis mellifera, UniProt P00630); test: biochemical; details: read-out: IC50 PLA2
[2] = molecular target: phosphoinositide-specific phospholipase C; test: Inhibition of phosphoinositide-specific phospholipase C assay (PLC); format: biochemical
Text: Inhibition of Phosphoinositide-specific Phospholipase C
The effect of compounds of this invention on phosphoinositide-specific phospholipase-C may be determined by procedures described by Bennett et al, Molecular Pharmacology 32:587-593 (1987).

[3] = test system: Ca2+ channel mobilization (TRH induced); test: Calcium channel (mobilization) inhibition assay, TRH induced; format: cell-based; details: for IC50: TRH induced calcium mobilization
Text: (§1) Calcium Channel (Mobilization) Inhibition Assay
(§2) Polymorphonuclear leukocytes (PMNa), gastric glands, GH3 cells, A431 cells, spleen cells, human keratinocytes corneal cells, etc. were loaded with the Ca^2+ sensitive fluorescent dye, Fura-2. The appropriate cell type was chosen and the potency and efficacy of the anti-inflammatory furanones on calcium mobilization, calcium channel inhibition quantitated. The methods used for A431 cells listed below are representative of those used for other cells.
(§3) A431 cells were detached using a 5-10 min trypsin-EDTA treatment whereas GH3 cells were treated 2 to 5 min with a 1% pancreatin solution. Cells were immediately washed twice in a 20 mM HEPES buffer (pH 7.4) containing 120 mM NaCl, 6 mM KCl, 1 mM MgSO4, 1 mg/ml glucose and 1 mg/ml pyruvate and 1.4 mM calcium (medium A). Approximately 5×10^6 cells were suspended in medium A and incubated with 4 μM fura-2-AM for 15 min at 37° C.
(§4) Fluorescence was continuously recorded with a Perkin-Elmer LS-5 spectrofluorometer. The excitation wavelength was set at 340 nm and emission wavelength set at 500 nm. The cell suspension was continually stirred, maintained at 37° C. and equilibrated for approximately 5 min before addition of various agents. [Ca^2+ ]i was calculated using the following formula: [formula]
(§5) All fluorescence values were measured relative to a EGTA-quenched signal determined as follows: F was the relative fluorescence measurement of the sample. Fmax was determined by lysing the cells with digitonin (100 μg/ml) in DMSO. After Fmax was determined the pH was adjusted to 8, with NaOH and Ca^2+ chelated with 3 mM EGTA to totally quench the fura-2 signal and obtain Fmin.
(§6) When quin-2 was used, cells were Incubated with 10 μM quin-2 at 37° C. for 1 hr, washed and then used.

[4] = test system: Ca2+ channel mobilization (KCl induced); test: Calcium channel (mobilization) inhibition assay, KCl induced; format: cell-based
Text: as §1, §2, §3
as §4, with “After washing the fura-2 loaded cells, the uptake of dye was checked using fluorescence micioscopy and found to be evenly distributed in the cytosol of all cells. Fluorescence” for “Fluorescence”
as §5, §6

bee venom phospholipase A2, sequence (P00630 34-167 limits assumed): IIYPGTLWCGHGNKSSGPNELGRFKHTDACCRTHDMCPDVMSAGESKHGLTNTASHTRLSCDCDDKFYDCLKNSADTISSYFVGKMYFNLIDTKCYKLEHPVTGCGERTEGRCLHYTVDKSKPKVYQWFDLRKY

Compound	IC50 [1]	IC50 [2]	IC50 [3]	Selectivity between calcium channel inhibition and phospholipase inhibition ([3]; conclusion from Table 1 (Ca2+ TRH/KCl vs PLA2, PLC))	IC50 [4]
CCCCCCCCCCCCCC1=CC(=O)OC1 [Compound 1, 4-tridecyl-2(5H)-furanone]	> 3.3 µM	> 100 µM	2.6 µM	selective calcium channel inhibitor	1.5 µM
CCCCCCCCCCCCCC1=CC(=O)OC1O (stereo not drawn) [Compound 2, 4-tridecyl-5-hydroxy-2(5H)-furanone]	0.09 µM	> 100 µM	3 µM		3 µM
CC1=C(CC/C(C)=C/CCC2=CCC(C3=CC(=O)OC3O)OC2O)C(C)(C)CCC1 (stereo not drawn) [manoalide, reference compound]		3 µM	0.6 µM		0.8 µM
